These results are taken from DBAASP.

Test systems include Candida albicans; Fusarium graminearum; Staphylococcus aureus; Escherichia coli; Streptococcus uberis; Bacillus cereus; Leuconostoc lactis; Micrococcus luteus; Listeria innocua; Pasteurella multocida; Escherichia coli 804; Escherichia coli 780; Staphylococcus aureus 75.
What all share (assay): ≥ marks a high value that may be exact or a test limit, other limits are often not marked, values filed in µg/mL are converted to µM
For assay [1], the system named is Escherichia coli CCT 1371.
Assay [2] has as its system Enterobacter cloacae ATCC 23355.
Assay [3] concerns Staphylococcus saprophyticus.
For assay [4], the system named is Bacillus subtilis CCT 2471.
Assay [5] relates to Pseudomonas aeruginosa ATCC 27853.
Assay [6] deals with Staphylococcus aureus ATCC 6535.
Assay [7] has as its system Klebsiella pneumoniae ATCC 13883.
In assay [8] the test system is Trichophyton mentagrophytes TIMM 1189.
The subject of assay [9] is Staphylococcus aureus JCM 2151.
In assay [10] the test system is Candida albicans TIMM 0144.
For assay [11], the system named is Bifidobacterium longum subsp. infantis.
Assay [12] has as its system Staphylococcus epidermidis.
Assay [13] concerns Staphylococcus aureus 113.
The subject of assay [14] is Bacillus subtilis ATCC 23857.
In assay [15] the test system is Klebsiella pneumoniae ATCC 700603.
The test system of assay [16] is Staphylococcus epidermidis ATCC 12228.
For assay [17], the system named is Pseudomonas aeruginosa 73.
In assay [18] the test system is Acinetobacter baumannii 97830.
The subject of assay [19] is Pseudomonas aeruginosa 50.
For assay [20], the system named is Staphylococcus aureus ATCC 29213.
The test system of assay [21] is Acinetobacter baumannii 9931.
The test system of assay [22] is Acinetobacter baumannii ATCC 19606.
The subject of assay [23] is Pseudomonas aeruginosa ATCC 9027.
Assay [24] deals with Staphylococcus carnosus KHS.
Assay [25] concerns Rhodococcus rhodochrous X15.
The test system of assay [26] is Staphylococcus aureus ATCC 2592.
Assay [27] has as its system Bacillus licheniformis X39.
Assay [28] concerns Escherichia coli ATCC 25922.
For assay [29], the system named is Yersinia enterocolitica ATCC 23715.

In brackets after ≈: the same amount, converted by molar mass. Several values for one entry are separate records, joined by “and”; a condition that tells them apart may be missing. Equal values may be shown once.

With `CC[C@H](C)[C@H](NC(=O)[C@H](CO)NC(=O)[C@@H](NC(=O)[C@H](CCCCN)NC(=O)[C@H](Cc1ccccc1)NC(=O)[C@@H]1CCCN1C(=O)[C@@H](N)[C@@H](C)O)[C@@H](C)CC)C(=O)N[C@@H](Cc1cnc[nH]1)C(=O)N[C@@H](CC(C)C)C(N)=O` [TPFKISIHL], the MIC with Candida albicans stood at 2.37 µM (≈ 2.5 µg/mL); in assay [1], 14.2 µM (≈ 15 µg/mL); in assay [2], 14.2 µM (≈ 15 µg/mL); in [3], 9.48 µM (≈ 9.99 µg/mL); in assay [4] it was 28.4 µM (≈ 30 µg/mL); in assay [5], 14.2 µM (≈ 15 µg/mL). For the same compound, the minimum inhibitory concentration (MIC) in assay [6] and in assay [7] was 14.2 µM (≈ 15 µg/mL) in each case.
For the compound `NC(=O)C[C@H](NC(=O)CNC(=O)[C@H](Cc1ccccc1)NC(=O)[C@@H](N)Cc1c[nH]c2ccccc12)C(=O)N[C@@H](CS)C(=O)NCC(=O)N[C@@H](CC(N)=O)C(=O)N1CCC[C@H]1C(=O)N[C@@H](CCCN=C(N)N)C(=O)N[C@@H](Cc1cnc[nH]1)C(=O)N[C@@H](CS)C(=O)NCC(=O)O` [WFGNCGNPRHCG], in the assay on Fusarium graminearum, the MIC was ≥ 70 µM.
On to `CC(=O)N[C@@H](CCCN=C(N)N)C(=O)N[C@@H](CCCN=C(N)N)C(=O)N[C@@H](Cc1c[nH]c2ccccc12)C(=O)N[C@@H](Cc1c[nH]c2ccccc12)C(=O)N[C@@H](CS)C(=O)N[C@@H](CCCN=C(N)N)C(N)=O` [RRWWCR], for which the MIC was 6.24 µM (≈ 6.26 µg/mL) in assay [8]; 26 µM and 12.5 µM in assay [9]; ≥ 52 µM in [10].
On to `NCCCC[C@H](NC(=O)CNC(=O)[C@H](Cc1ccccc1)NC(=O)[C@H](CCCCN)NC(=O)[C@@H](N)CCC(=O)O)C(=O)N[C@@H](CC(=O)O)C(=O)N[C@@H](CCCCN)C(=O)N[C@@H](CO)C(=O)N1CCC[C@H]1C(=O)N[C@@H](CCCCN)C(=O)N[C@@H](Cc1ccccc1)C(=O)N[C@@H](CCC(N)=O)C(=O)O` [EKFGKDKSPKFQ], for which the MIC against Staphylococcus aureus was 2090 µM (≈ 3000 µg/mL); in the assay with Escherichia coli it was 2090 µM (≈ 3000 µg/mL); in assay [11] it was ≥ 2090 µM.
As for `CC[C@H](C)[C@H](NC(=O)[C@H](CO)NC(=O)CNC(=O)[C@@H](NC(=O)[C@H](CC(C)C)NC(=O)CN)[C@@H](C)CC)C(=O)NCC(=O)N[C@@H](CCCCN)C(=O)N[C@@H](C)C(=O)N[C@@H](CC(C)C)C(=O)NCC(=O)NCC(=O)N[C@@H](CC(C)C)C(=O)N[C@@H](CC(C)C)C(=O)N[C@H](C(=O)N[C@@H](CC(=O)O)C(=O)N[C@H](C(=O)N[C@@H](CC(C)C)C(=O)N[C@@H](CCCCN)C(=O)N1CCC[C@H]1C(=O)N[C@@H](CCCCN)C(=O)N[C@@H](CC(C)C)C(=O)O)C(C)C)C(C)C` [GLIGSIGKALGGLLVDVLKPKL], the MIC is ≥ 46.3 µM against Streptococcus uberis; > 46.3 µM in the assay on Staphylococcus aureus; > 46.3 µM in the assay on Escherichia coli; ≥ 46.3 µM in the assay on Bacillus cereus; ≥ 46.3 µM in assay [12]; 23.1 µM (≈ 50 µg/mL) in the assay on Leuconostoc lactis. For the same compound, the MIC against Micrococcus luteus, with Listeria innocua and against Pasteurella multocida was ≥ 46.3 µM each time.
On to `NCC(=O)N[C@@H](Cc1c[nH]c2ccccc12)C(=O)N[C@@H](CCCN=C(N)N)C(=O)N[C@@H](Cc1c[nH]c2ccccc12)C(=O)N[C@@H](Cc1c[nH]c2ccccc12)C(=O)N[C@@H](Cc1c[nH]c2ccccc12)C(=O)N[C@@H](CCCN=C(N)N)C(=O)N[C@@H](Cc1c[nH]c2ccccc12)C(=O)NCC(N)=O` [GWRWWWRWG], for which the MIC in assay [13] was 8 µM (≈ 11 µg/mL); in [14], 4 µM (≈ 5.5 µg/mL); in [15], 32 µM (≈ 44 µg/mL); in [16], 8 µM (≈ 11 µg/mL); with Escherichia coli 804 it was 16 µM (≈ 22 µg/mL); in assay [17], ≥ 32 µM. The MIC in assay [18] is 16 µM (≈ 22 µg/mL); in assay [19] it was ≥ 32 µM; in assay [20], 8 µM (≈ 11 µg/mL); in assay [21], 8 µM (≈ 11 µg/mL); in assay [22], 32 µM (≈ 44 µg/mL); in [5], 64 µM (≈ 88 µg/mL). The MIC in [23] came to 64 µM (≈ 88 µg/mL); against Escherichia coli 780, 8 µM (≈ 11 µg/mL); against Staphylococcus aureus 75, 8 µM (≈ 11 µg/mL).
As for `CC[C@H](C)[C@H](NC(=O)[C@H](CC(C)C)NC(=O)CNC(=O)[C@H](C)NC(=O)[C@H](CC(C)C)NC(=O)[C@@H](N)Cc1ccccc1)C(=O)NCC(=O)NCC(=O)N[C@@H](CC(C)C)C(=O)N[C@@H](C)C(=O)N[C@@H](CCCCN)C(=O)N[C@@H](CCSC)C(=O)N[C@@H](CC(C)C)C(N)=O` [FLAGLIGGLAKML], the MIC in [24] was 9.5 µM (≈ 12.4 µg/mL); in assay [25] it was 4.8 µM (≈ 6.25 µg/mL); in assay [26], 9.5 µM (≈ 12.4 µg/mL); in [27], 19 µM (≈ 24.8 µg/mL).
Regarding `CC[C@H](C)[C@H](NC(=O)[C@@H]1CCCN1C(=O)[C@H](CC(N)=O)NC(=O)[C@H](Cc1cnc[nH]1)NC(=O)[C@@H](NC(=O)[C@@H]1CCCN1C(=O)[C@H](C)NC(=O)[C@H](CC(C)C)NC(=O)[C@@H]1CCCN1C(=O)[C@H](CCC(N)=O)NC(=O)[C@@H](NC(=O)[C@@H](NC(=O)[C@@H]1CCCN1C(=O)[C@@H](N)Cc1ccc(O)cc1)C(C)C)[C@@H](C)O)C(C)C)C(=O)N[C@@H](CO)C(=O)O` [YPVTQPLAPVHNPIS], the minimal inhibitory concentration (MIC) in [28] stood at 1.91 µM (≈ 3.13 µg/mL); in assay [29], 3.83 µM (≈ 6.25 µg/mL).
